From patent US9034861B2, “MEK inhibitors useful in the treatment of diseases” (Allomek Therapeutics LLC, priority 2009, dated 2015)
Like-named read-outs stand apart in the source and are kept apart here.

Tests used:
[1] = target: T1, recombinant full-length human GST-MEK1 (Homo sapiens, UniProt Q02750); experiment: MEK Enzyme Inhibitory Assay (ADP-Glo); assay type: biochemical
T1 construct: Purified recombinant full-length human GST-MEK1; GST; purchased Cell Signaling Technology, Inc (Beverly, Mass., USA)
Method: Materials and preparation of reagents: Purified recombinant full-length human GST-MEK1 was purchased from Cell Signaling Technology, Inc (Beverly, Mass., USA). MAP kinase substrate Erk1/Erk2 peptide was purchased from Enzo Life Sciences (Plymouth Meeting, Pa., USA).
Determination of enzymatic activity: Compounds were diluted three-fold in dimethylsulfoxide (DMSO) ranging from 1 mM to 1.37 μM concentration. A typical 20-microliter assay contained 80 ng MEK1, 4 μg Erk1/Erk2 peptide, 100 μM or 1 mM ATP, 1 μM to 1.37 nM test compound in 1× assay buffer containing 5 mM MOPS, pH 7.2, 2.5 mM β-glycerophosphate, 1 mM EGTA, 0.4 mM EDTA, 5 mM MgCl2, 0.05 mM DTT. Enzyme reaction was incubated at room temperature for 90 minutes. At the end of kinase reaction, 20 μL of ADP-Glo reagent (Promega, Madison, Wis., USA) was added and incubated at room temperature for 40 minutes. Forty μL of kinase detection reagent (Promega) was added and incubated at room temperature for 1 h. Chemiluminescence was read and IC50s calculated using SoftMax software.

HepG2 cells = experiment: Proliferation / cell survival assay (CellTiterGlo, 72 hour); assay type: cell-based; conditions: Homo sapiens; HepG2, N-Ras mutation; average of two experiments; read-out: IC50, in vitro cell survival / proliferation
Method: (§1) In vitro studies of variety of tumor cells lines with prevalent mutations in RAS/RAF genes were performed for anti-proliferative activity (functional assay). This was compared with wild type cell line for selectivity. MEK kinase assay was performed in the presence and in the absence of ATP to define its allosteric inhibitory mode of action; Effect on ERK phosphorylation was studied to establish its cellular mechanism of action.
(§2) Colo205, Caki-1, HepG2, HCT116 and HT29 cells were obtained from American Type Culture Collection. Colo205, Caki-1, HepG2 cells were grown in RPMI 1640 medium supplemented with L-glutamine (Invitrogen) and 10% Fetal Bovine Serum (Hyclone) at 37° C. in a humidified, 5% CO2 incubator. HCT116 and HT29 cells were grown in DMEM medium supplemented with L-glutamine (Invitrogen) and 10% Fetal Bovine Serum (Hyclone) at 37° C. in a humidified, 5% CO2 incubator.
(§3) Proliferation assay was done by plating 2,000 cells/well in 100 μL of DMEM/10% FBS or RPMI/10% media in a 96-well plate and incubated overnight at 37° C. in a humidified, 5% CO2 incubator. Media was replaced with fresh 100 μL of fresh RPMI/10% FBS media or DMEM/10% FBS media containing various concentrations of the compounds. Compounds were added at 3-fold dilutions, concentrations ranging from 3.3 μM to 4.5 nM. After 72 hour incubation with the compounds at 37° C. in a humidified, 5% CO2 incubator, cell viability was measured in a luminometer after the addition of 100 μL/well CellTiterGlo reagent (Promega). IC50s were calculated using SoftMax software.

Colo205 cells = experiment: as above; assay type: cell-based; conditions: Homo sapiens, COLO 205; Colo205, BRAF mutation; average of two experiments; read-out: IC50, in vitro cell survival / proliferation
Method: as §1, §2, §3

HT29 cells = experiment: as above; assay type: cell-based
Method: as §1, §2, §3

Caki-1 cells = experiment: as above; assay type: cell-based; conditions: Homo sapiens; Caki (Caki-1), WT; average of two experiments; read-out: IC50, in vitro cell survival / proliferation
Method: as §1, §2, §3

HCT116 cells = experiment: as above; assay type: cell-based; conditions: Homo sapiens, HCT-116; HCT116, K-Ras mutation; average of two experiments; read-out: IC50, in vitro cell survival / proliferation
Method: as §1, §2, §3

[2] = Homo sapiens, HT-29, HT29, BRAF mutation, average of two experiments, read-out: IC50, in vitro cell survival / proliferation
[3] = Homo sapiens, HT-29, HT29 proliferation, class symbols, read-out: HT29 IC50

T1 sequence (Q02750 whole entry): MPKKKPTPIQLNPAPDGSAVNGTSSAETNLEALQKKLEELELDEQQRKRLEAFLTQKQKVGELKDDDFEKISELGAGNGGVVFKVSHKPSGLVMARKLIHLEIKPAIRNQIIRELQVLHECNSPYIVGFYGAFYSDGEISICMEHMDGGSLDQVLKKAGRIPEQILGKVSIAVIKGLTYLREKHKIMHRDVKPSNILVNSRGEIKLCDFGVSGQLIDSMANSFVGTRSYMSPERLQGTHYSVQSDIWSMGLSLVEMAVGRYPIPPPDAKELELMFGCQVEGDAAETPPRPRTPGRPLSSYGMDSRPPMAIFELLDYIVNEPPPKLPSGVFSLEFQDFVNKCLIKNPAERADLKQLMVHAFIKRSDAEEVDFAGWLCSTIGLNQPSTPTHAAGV

In the case of `O=S1(=O)Nc2c(cc(F)c(F)c2Nc2ccc(I)cc2F)OCC(O)C(O)CC12CC2` (racemic) [Example 8], the IC50 [1] is reported as 21 nM, the IC50 (HepG2 cells) is reported as 15 nM and the IC50 (Colo205 cells) is reported as 17 nM. The IC50 (HT29 cells; [2]) was 21 nM, the IC50 (HT29 cells; [3]) was under 100 nM and the IC50 (Caki-1 cells) was over 1000 nM. The IC50 (HCT116 cells) was 544 nM.
`O=S1(=O)Nc2c(cc(F)c(F)c2Nc2ccc(I)cc2F)OCC(O)C(O)CC12CC2` (single isomer, unassigned) [Example 8a] was tested, and the IC50 (HT29 cells; HT29 proliferation, class symbols, read-out: HT29 IC50) was under 100 nM.
For `O=S1(=O)Nc2c(cc(F)c(F)c2Nc2ccc(I)cc2F)OCC(O)C(O)CC12CC2` (single isomer, unassigned) [Example 8b], the IC50 (HT29 cells; [3]) was 100 to 500 nM.
With `O=S1(=O)Nc2c(cc(F)c(F)c2Nc2ccc(I)cc2F)OC/C=C/CC12CC2` [Example 1] the IC50 (HT29 cells; [3]) was 100 to 500 nM.
Work on `O=S1(=O)Nc2c(cc(F)c(F)c2Nc2ccc(Br)cc2F)OCC(O)C(O)CC12CC2` (centres unmarked) [Example 9] yielded an IC50 (HT29 cells; [3]) of over 500 nM.
Work on `O=S1(=O)Nc2c(cc(F)c(F)c2Nc2ccc(I)cc2)OCC(O)C(O)CC12CC2` (centres unmarked) [Example 10] yielded an IC50 (HT29 cells; [3]) of 100 to 500 nM.
`O=S1(=O)Nc2c(cc(F)c(F)c2Nc2ccc(I)cc2Cl)OCC(O)C(O)CC12CC2` (centres unmarked) [Example 11] was tested, and the IC50 (HT29 cells; [3]) was 100 to 500 nM.
Molecule `O=S1(=O)Nc2c(Nc3ccc(I)cc3F)cc(F)cc2OCC(O)C(O)CC12CC2` (centres unmarked) [Example 13] has an IC50 (HT29 cells; [3]) of under 100 nM.
Molecule `COc1cc(F)c(NS(=O)(=O)C2(CC(O)CO)CC2)c(Nc2ccc(I)cc2F)c1F` (centres unmarked) [Example 15, N-(3,6-difluoro-2-(2-fluoro-4-iodophenylamino)-4-methoxyphenyl)-1-(2,3-dihydroxypropyl)cyclopropane-1-sulfonamide] has an IC50 (HT29 cells; [3]) of 100 to 500 nM.
`COc1cc(F)c(NS(=O)(=O)C2(CC(O)CO)CC2)c(Nc2ccc(Br)cc2F)c1F` (centres unmarked) [Example 16] showed an IC50 (HT29 cells; [3]) of over 500 nM.
For `COc1cc(F)c(NS(=O)(=O)C2(CC(O)CO)CC2)c(Nc2ccc(I)cc2F)c1` (centres unmarked) [Example 17], the IC50 (HT29 cells; [3]) was under 100 nM.
Work on `O=S1(=O)Nc2c(cc(F)c(F)c2Nc2ccc(I)cc2F)OCCCCC12CC2` [Example 19] yielded an IC50 (HT29 cells; [3]) of over 500 nM.
`COc1cc(F)c(F)c(Nc2ccc(I)cc2F)c1NS(=O)(=O)C1(C[C@H](O)CO)CC1` [RDEA 119, reference compound] gave an IC50 (HepG2 cells) of 17 nM, an IC50 (Colo205 cells) of 20 nM and an IC50 (HT29 cells; [2]) of 20 nM. For the same molecule, the IC50 (Caki-1 cells) was over 1000 nM and the IC50 (HCT116 cells) was 461 nM.
